From PubChem BioAssay (NCI) come the findings set out here.

Structures are written as SMILES. Values joined by “and” are separate entries in the source; they are usually repeats but may differ in a detail not shown here. Equal values may be shown once.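 Five concentrations, 48 hours, 96-well plates. GI50 = concentration required for 50% inhibition of growth. TGI is the concentration that stops growth completely.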

Test systems include MDA-MB-435; ACHN renal; SR leukemia; SF-268 CNS; SNB-75 CNS; MDA-MB-231 breast; HS 578T breast; PC-3 prostate; NCI-H460 lung; OVCAR-3 ovarian.
Holding throughout (assay): DTP human tumour cell line panel, 48 h

As for `COc1cccc(-c2nc3sccn3c2-c2ccnc(NCCCNS(=O)(=O)c3ccccc3)c2)c1`, the GI50 (in general, the concentration giving 50% growth inhibition) was 3.53 µM in the experiment with MDA-MB-435; 2.66 µM in the experiment on ACHN renal; 3.57 µM with SR leukemia; 3.46 µM with SF-268 CNS; 1.55 µM in the experiment with SNB-75 CNS; 3.48 µM in the experiment with MDA-MB-231 breast. The GI50 with HS 578T breast is 3.51 µM; in the experiment with PC-3 prostate it was 1.97 µM; in the experiment on NCI-H460 lung, 3.35 µM; in the experiment on OVCAR-3 ovarian, 3.3 µM. Besides, the total growth inhibition concentration (TGI) – broadly, the concentration giving total growth inhibition – is greater than 100 µM with MDA-MB-435; greater than 100 µM with ACHN renal; 92.6 µM in the experiment with SR leukemia; greater than 100 µM in the experiment with SF-268 CNS; 8.08 µM in the experiment with SNB-75 CNS; greater than 100 µM with MDA-MB-231 breast. Besides, the TGI in the experiment with HS 578T breast is greater than 100 µM; with PC-3 prostate, 6.3 µM; in the experiment with NCI-H460 lung it was greater than 100 µM; in the experiment with OVCAR-3 ovarian it was greater than 100 µM.
Turning to `C=CC(=O)Nc1cc2c(Nc3ccc(F)c(Cl)c3)ncnc2cc1C#CC(C)(C)N1CCN(C)CC1`, the GI50 in the experiment on MDA-MB-435 was 1.5 µM; in the experiment with ACHN renal, 0.0779 µM; in the experiment on SR leukemia it was 0.746 µM; in the experiment on SF-268 CNS it was 1.84 µM; in the experiment on SNB-75 CNS, 1.16 µM; in the experiment on MDA-MB-231 breast it was 1.27 µM. Besides, the GI50 is 2.28 µM with HS 578T breast, 1.93 µM in the experiment with PC-3 prostate, 2.91 µM with NCI-H460 lung and 1.13 µM in the experiment with OVCAR-3 ovarian. The total growth inhibition concentration (TGI) came to 3.9 µM with MDA-MB-435; 4.26 µM in the experiment on ACHN renal; 5.61 µM with SR leukemia; 5.51 µM with SF-268 CNS; 3.86 µM with SNB-75 CNS; 2.73 µM in the experiment on MDA-MB-231 breast. The concentration for total growth inhibition (TGI) worked out at 8.47 µM in the experiment on HS 578T breast, 5.31 µM in the experiment with PC-3 prostate, 6.69 µM in the experiment with NCI-H460 lung and 2.85 µM in the experiment with OVCAR-3 ovarian.
On to `COc1ccccc1NC(=O)C1=C(C)NC(C)=C(C(=O)Nc2ccccc2OC)C1c1ccco1`, for which the concentration for total growth inhibition (TGI) in the experiment on MDA-MB-435 was 19.8 µM; in the experiment with ACHN renal, greater than 100 µM; in the experiment with SR leukemia it was 15.3 µM; in the experiment with SF-268 CNS, greater than 97.3 µM; in the experiment with SNB-75 CNS, 29.7 µM; with MDA-MB-231 breast, greater than 100 µM. The concentration for total growth inhibition (TGI) is 9 µM with HS 578T breast, greater than 100 µM with PC-3 prostate, greater than 43.9 µM in the experiment with NCI-H460 lung and 9.02 µM in the experiment on OVCAR-3 ovarian.
Regarding `COc1cc(NC2CCCCC2O)c2nc(-c3ccc(Cl)cc3)ccc2c1` (stereo not drawn), the GI50 in the experiment on MDA-MB-435 was 4.22 µM; in the experiment on ACHN renal it was 8.94 µM; with SR leukemia, 3.26 µM; in the experiment on SF-268 CNS it was 9.68 µM; in the experiment with SNB-75 CNS, 5.04 µM; in the experiment with MDA-MB-231 breast it was 4.43 µM. Moreover, the GI50 in the experiment on HS 578T breast was 2.88 µM; with PC-3 prostate it was 4.87 µM; in the experiment on NCI-H460 lung it was 3.35 µM; with OVCAR-3 ovarian, 10.5 µM. For the same compound, the concentration for total growth inhibition (TGI) is 16.6 µM in the experiment on MDA-MB-435; greater than 100 µM with ACHN renal; 32.8 µM with SR leukemia; greater than 100 µM in the experiment with SF-268 CNS; 59.1 µM in the experiment with SNB-75 CNS; 57.8 µM in the experiment on MDA-MB-231 breast. Also, the TGI with HS 578T breast was 13.2 µM; in the experiment on PC-3 prostate, greater than 100 µM; with NCI-H460 lung it was 12.3 µM; in the experiment on OVCAR-3 ovarian, 32.8 µM.
For `COc1cc2c3cc1Oc1c(OC)c(OC)cc4c1C(Cc1ccc(O)c(c1)Oc1ccc(cc1)CC3N(C)CC2)N(C)CC4` (stereo not drawn), the GI50 in the experiment on MDA-MB-435 is 6.7 µM; in the experiment with ACHN renal, 12.7 µM; with SR leukemia, 3.32 µM; in the experiment on SF-268 CNS, 15.2 µM; in the experiment with SNB-75 CNS, 11.3 µM; with MDA-MB-231 breast, 5.21 µM. In addition, the GI50 is 15.3 µM in the experiment with HS 578T breast and 23.4 µM in the experiment on PC-3 prostate. The TGI in the experiment on MDA-MB-435 was 19.8 µM; in the experiment on ACHN renal it was 34.9 µM and 44.1 µM; in the experiment with SR leukemia, 21 µM; in the experiment on SF-268 CNS, 64.2 µM and 51.8 µM; in the experiment on SNB-75 CNS, 52.7 µM and 24 µM; in the experiment with MDA-MB-231 breast, > 100 µM and 21.9 µM. In addition, the TGI is 55.3 µM and 43.4 µM in the experiment with HS 578T breast; greater than 100 µM with PC-3 prostate; 32.4 µM and 38.8 µM in the experiment with NCI-H460 lung; 39.1 µM in the experiment on OVCAR-3 ovarian.
As for `COc1ccc(C2NC(=S)NC3=C2CCOc2c3ccc3ccccc23)cc1` (stereo not drawn), the GI50 in the experiment on MDA-MB-435 is 36.4 µM; with ACHN renal it was 69.3 µM; in the experiment on SR leukemia it was 7.27 µM; in the experiment with SF-268 CNS it was 6.73 µM; in the experiment on SNB-75 CNS it was 60.7 µM; in the experiment on MDA-MB-231 breast, 98.9 µM. Further, the GI50 in the experiment with HS 578T breast is 47.4 µM; in the experiment with PC-3 prostate, greater than 100 µM; in the experiment with NCI-H460 lung, 7.88 µM; in the experiment on OVCAR-3 ovarian, 51.5 µM. For the same compound, the TGI in the experiment on MDA-MB-435, in the experiment with ACHN renal, in the experiment with SR leukemia, in the experiment on SF-268 CNS, in the experiment on SNB-75 CNS and in the experiment on MDA-MB-231 breast was greater than 100 µM each time. Also, the TGI in the experiment on HS 578T breast, with PC-3 prostate, in the experiment with NCI-H460 lung and with OVCAR-3 ovarian was greater than 100 µM in each case.
Take `C[As](C)SC1OCC(O)C(O)C1O` (stereo not drawn): the 50% growth inhibitory concentration (GI50) in the experiment on MDA-MB-435 was 0.13 µM; in the experiment on ACHN renal, 0.148 µM; with SR leukemia, 0.0255 µM; in the experiment with SF-268 CNS, 0.492 µM; in the experiment with SNB-75 CNS, 0.805 µM; in the experiment with MDA-MB-231 breast it was 0.224 µM. The GI50 in the experiment with HS 578T breast is 0.276 µM; in the experiment with PC-3 prostate, 0.506 µM; in the experiment with NCI-H460 lung, 1.1 µM; with OVCAR-3 ovarian, 0.081 µM. Also, the concentration for total growth inhibition (TGI) in the experiment on MDA-MB-435 came to 1.32 µM; in the experiment on ACHN renal, 0.624 µM; in the experiment on SR leukemia, 0.0849 µM; in the experiment with SF-268 CNS, 2.88 µM; with SNB-75 CNS, 2.36 µM; in the experiment on MDA-MB-231 breast, 0.63 µM. For the same compound, the TGI in the experiment on HS 578T breast was determined as 0.718 µM; in the experiment on PC-3 prostate, 5.73 µM; with NCI-H460 lung, 7.52 µM; with OVCAR-3 ovarian it was 0.412 µM.
Regarding `CC1OC(OC2C(O)C(O)C(O)C(O)C2O)C(N)CC1N=C(N)C(=O)O` (stereo not drawn), the total growth inhibition concentration (TGI) in the experiment with MDA-MB-435, in the experiment on ACHN renal, with SR leukemia, in the experiment on SF-268 CNS, in the experiment on SNB-75 CNS and in the experiment on MDA-MB-231 breast was greater than 100 µM each time. Besides, the total growth inhibition concentration (TGI) with HS 578T breast, in the experiment with PC-3 prostate, in the experiment on NCI-H460 lung and in the experiment with OVCAR-3 ovarian was greater than 100 µM each time.
